According to patent US4396628A (priority 1982, dated 1983):
Entries after “also recorded” stand apart in the source; their conditions may differ. Read-outs that look alike come from different tables or passages of the source.

Key:
Swiss 3T3 cells [1] = system: Swiss 3T3 cells
[2] = system: α2 macroglobulin (α2 M) uptake, Swiss 3T3 cells; experiment: uptake (internalization) of 125I-α2 macroglobulin by Swiss 3T3 cells; format: cell-based, mouse; settings: for IC50: Mus musculus, 0.75 h, Swiss 3T3, 0.5 μg/ml 125I-α2 M, 45 min at 37° C., read-out: half-maximal inhibitory concentration, α2 M uptake; for effect on α2 macroglobulin uptake: in words
[3] = system: vesicular stomatitis virus (VSV); experiment: microbe, parasite or virus in culture; format: cell-based, vesicular stomatitis virus; Swiss 3T3 mouse cells; settings: for VSV-dependent RNA synthesis when VSV neutralizing antibody omitted (reversibility): Swiss 3T3, inhibitor-treated cultures; for IC50: Vesicular stomatitis virus, Swiss-3T3, in Mus musculus, 10 min, read-out: half-maximal inhibitory concentration, VSV dependent RNA synthesis; for effect on VSV entry / VSV dependent RNA synthesis: in words
[4] = target: T1, guinea pig liver transglutaminase (Cavia cutleri, UniProt P08587); experiment: guinea pig liver transglutaminase activity, incorporation of 3H-putrescine into casein; format: biochemical; settings: for IC50: 3H-putrescine into casein, read-out: Half-maximal Inhibitory Concentration, transglutaminase; for potency ranking in the transglutaminase assay: in words
T1 construct: guinea pig liver transglutaminase activity; from tissue; host or cells: guinea pig liver
T1 sequence (P08587 2-690): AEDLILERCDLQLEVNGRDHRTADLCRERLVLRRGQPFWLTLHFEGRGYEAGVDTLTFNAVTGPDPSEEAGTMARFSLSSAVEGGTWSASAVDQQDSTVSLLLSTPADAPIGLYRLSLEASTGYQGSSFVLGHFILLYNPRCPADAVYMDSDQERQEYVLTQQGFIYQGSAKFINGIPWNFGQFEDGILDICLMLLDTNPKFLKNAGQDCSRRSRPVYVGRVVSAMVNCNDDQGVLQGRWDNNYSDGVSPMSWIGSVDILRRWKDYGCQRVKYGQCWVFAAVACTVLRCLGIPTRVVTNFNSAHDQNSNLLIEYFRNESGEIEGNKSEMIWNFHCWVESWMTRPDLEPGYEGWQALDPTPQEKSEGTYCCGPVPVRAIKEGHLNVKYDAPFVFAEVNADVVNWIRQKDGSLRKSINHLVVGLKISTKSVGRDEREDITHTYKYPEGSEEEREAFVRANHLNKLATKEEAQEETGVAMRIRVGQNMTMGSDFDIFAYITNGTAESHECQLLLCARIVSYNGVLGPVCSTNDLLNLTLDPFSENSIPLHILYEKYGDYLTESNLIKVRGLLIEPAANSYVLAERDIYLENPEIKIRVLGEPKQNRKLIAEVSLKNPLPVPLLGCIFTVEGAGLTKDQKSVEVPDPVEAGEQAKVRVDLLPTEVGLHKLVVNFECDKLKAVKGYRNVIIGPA
Method: Effect of Dansylcadaverine, Amantadine, and Rimantadine
on the Activity of Guinea Pig Liver Transglutaminase
Enzyme activity was measured by the incorporation of ^3 H-putrescine into casein. All three inhibitors of viral and α2 M internalization were also inhibitory in the transglutaminase assay.

[5] = system: vesicular stomatitis virus (VSV); format: cell-based, vesicular stomatitis virus; Swiss 3T3 mouse cells; settings: for effect on uptake of VSV and α2 M via coated pits: Swiss 3T3, EM
Swiss 3T3 cells [6] = experiment: cytotoxicity and cellular RNA synthesis in drug-treated Swiss 3T3 cultures; settings: Swiss 3T3, experimental protocol of FIG. 2
[7] = system: α2 M in coated pits, Swiss 3T3 cells; experiment: electron microscopy (peroxidase staining) of α2 M appearance in coated pits of Swiss 3T3 cells; format: cell-based, mouse; settings: 250 μg/ml α2 M; for α2 M appearance in coated pits: 45 min at 4° C., varying inhibitor concentrations
Method: Swiss 3T3 cells were incubated with 250 μg/ml α2 M at 4° C., with and without inhibitor. Em localization of α2 M was performed using a peroxidase staining technique.
Varying concentrations of amantadine and rimantadine were present during the incubation period. The cells were then washed, fixed for EM and the α2 M located by the peroxidase method. […] In the absence of inhibitors, α2 M was easily detected in coated pits by the peroxidase techniques (FIG. 5B).

[8] = system: vesicular stomatitis virus (VSV); format: cell-based, vesicular stomatitis virus; Swiss 3T3 mouse cells; settings: 200 μM; 10 min at 37° C.; MOI 500

| Structure (SMILES) | cellular RNA synthesis, drug-treated versus control cultures (Swiss 3T3 cells [1]) | IC50 [2] [µM] | effect on α2 macroglobulin uptake [2] | VSV-dependent RNA synthesis when VSV neutralizing antibody omitted (reversibility) [3] | IC50 [3] [µM] | effect on VSV entry / VSV dependent RNA synthesis [3] | IC50 [4] [mM] | potency ranking in the transglutaminase assay [4] | effect on uptake of VSV and α2 M via coated pits [5] | cytotoxicity (Swiss 3T3 cells [6]) | α2 M appearance in coated pits [7] | α2 M localization by EM ([7]; 5 mM amantadine, 4° C. (FIG. 5C)) | intracellular VSV G protein / VSV uptake by immunofluorescence [8] | potency relative to amantadine, VSV uptake (antiviral) ([3]; dansylcadaverine versus amantadine) [fold] | coated pit appearance in VSV-infected cells by EM ([5]; 100 μM dansylcadaverine (FIG. 4D)) | coated pit appearance in VSV-infected cells by EM ([5]; 500 μM dansylcadaverine (FIG. 4E)) | coated pit appearance in VSV-infected cells by EM ([5]; 1 mM rimantadine (FIG. 4F)) | α2 M localization by EM ([7]; 1 mM rimantadine, 4° C. (FIG. 5D)) |
| --- | --- | --- | --- | --- | --- | --- | --- | --- | --- | --- | --- | --- | --- | --- | --- | --- | --- | --- |
| NC12CC3CC(CC(C3)C1)C2 [amantadine, 1-adamantanamine] | equivalent in control and drug-treated cultures | 2500 | inhibit the uptake of α2 macroglobulin | control levels of VSV-dependent RNA synthesis | 1000 | reduction of VSV-dependent RNA synthesis; also recorded: inhibit VSV entry; also recorded: reduced VSV dependent RNA synthesis | 20 | third | drastically perturbed this uptake mechanism | no evidence of cytotoxicity | inhibition of α2 M appearance in coated pits | α2 M bound diffusely to the plasma membrane |  |  |  |  |  |  |
| CN(C)c1cccc2c(S(=O)(=O)NCCCCCN)cccc12 [dansylcadaverine] | equivalent in control and drug-treated cultures | 150 | inhibit the uptake of α2 macroglobulin | control levels of VSV-dependent RNA synthesis | 50 | blocking virus (such as vesicular stomatitis virus, VSV), and α2 macroglobulin uptake; also recorded: reduction of VSV-dependent RNA synthesis; also recorded: inhibit VSV entry; also recorded: reduced VSV dependent RNA synthesis | 0.2 | most potent | drastically perturbed this uptake mechanism | no evidence of cytotoxicity |  |  | little or no G protein | 20 | vacant coated pit | vacant coated pit |  |  |
| CC(N)C12CC3CC(CC(C3)C1)C2 (stereo not drawn) [rimantadine] |  | 500 |  |  |  |  | 5 | second most potent | drastically perturbed this uptake mechanism |  | inhibition of α2 M appearance in coated pits |  |  |  |  |  | vacant coated pit | α2 M bound to plasma membrane |
